Counter-ions that a name gives are not always drawn. Non-standard residues stand in square brackets, D forms with d. Residues, ends and D or L forms follow the SMILES beside them. *: point of attachment. Boc = CC(C)(C)OC(=O)*; CH2Cl = ClC*
B1: H-D-Tyr-Pro-Arg-chloromethylketone trifluororoacetate salt (peptide)
peptide: H-[dY]-Pro-Arg-CH2Cl
modifications: also: trifluoroacetate salt
B2: 1,5-Dansyl-Glu-Gly-Arg-chloromethylketone dihydrochloride (peptide)
peptide: {1,5‑dansyl}-Glu-Gly-Arg-CH2Cl
modifications: also: dihydrochloride salt

Assays:
[1] = test system: persons having hyperlipidemia; assay: Treating hyperlipidemia: fasting lipid profile study; format: in vivo, human; conditions: fasting (9-12 hours), versus control group
Experimental: Hyperlipidemia is an elevation of lipids in the bloodstream. These lipids include, for example, cholesterol and triglycerides. General hyperlipidemia is determined by the results of a lipid profile. The lipid profile includes LDL, HDL, triglycerides and total cholesterol measurements. A group of persons having hyperlipidemia with a total cholesterol level greater than 240 mg/dl, an HDL (high density lipid) of below 40 mg/ml, a triglyceride level of greater than 200 mg/dl and an LDL (low density lipid) level of over 160 mg/ml, after a 9 to 12 hours of fasting, are chosen for this study.
10 people are given a treatment of ritonavir at 600 mg taken twice a day. The other 10 people are given a placebo. The treatment continued for 2 months.
(§1) The study group is advised to follow their normal routine concerning their eating habits and exercise patterns, which is recorded 1 month prior to this study and throughout this study.
At the end of two months another fasting (9-12 hours) lipid profile is taken.
(§2) The same study in Example 8 is conducted with a larger group of people having hyperlipidemia. Each of the treated groups 1 to 7 is given as amprenavir, atazanavir, indinavir, lopinavir, fosamprenavir, nelfinavir or saquinavir in the same amounts as set forth in Example 3. The control group is given a placebo. At the end of two months another fasting (9-12 hours) lipid profile is taken.

[2] = test system: people having Type II diabetes; assay: Treating Type II diabetes: blood glucose study; format: in vivo, human; conditions: versus control group (placebo)
Experimental: Type II diabetes is a disease in which the amount of insulin produced by the pancreas is inadequate to meet the body's needs and thus glucose, which is metabolized by insulin is not taken up normally from the blood into the body tissues. Therefore glucose in the blood rises. Type II diabetes is detected by a fasting glucose level of greater than 126 mg/dL measured on two occasions or one blood glucose level of greater than 200 mg/dL on one occasion or two random blood glucose levels of more than 200 mg/dL. Also a glucose tolerance test having a glucose level of more than 200 mg/dL 2 hours after drinking 75 grams of glucose also qualifies an individual as having Type II diabetes.
Two groups of 10 people are used in this study. The first given a treatment of ritonavir at 600 mg taken twice a day, while the other 10 people were given a placebo. The treatment continued for 2 months.
as §1
At the end of two months blood glucose levels and a glucose tolerance test are tested with all of the people in the study.
as §2, with “6” for “8”, “Type II diabetes.” for “hyperlipidemia.”

enteropeptidase [3] = biological target: T1, enteropeptidase (Homo sapiens, UniProt P98073); assay: Trypsinogen activation assay; format: biochemical; parameters: purchased R&D Systems 1585-SE
From the text: In vitro Testing: the Trypsinogen Activation Assay
Material: The following component, used in the present trypsinogen activation assay may be purchased as follows:
In the first step, the enteropeptidase cleaves the trypsinogen in its active form, trypsin. Trypsin, in the second step, cleaves the N-CBZ-Gly-Pro-Arg-p-nitroanilide (pNA) into N-CBZ-Gly-Pro-Arg and p-nitroanilide (pNA). The amount of pNA can be measured at 405 nm, and reflects the amount of trypsin cleaved and thus the inhibitory activity of the molecules tested on the enteropeptidase.
In the first step, the following mix was prepared (50 μl final) • recombinant human enteropeptidase: 1.5 nM final • sodium citrate: […] • candidate molecule or control: 1 μl • trypsinogen: 2.5 μM final
The mix was incubated at room temperature during 10 minutes and the reaction was stopped with 5 μl of HCl 0.4 M.
In the second step, the previous mix was then incubated with a 50 μl mix comprising 1 mM of N-CBZ-Gly-Pro-Arg-pNA, Tris Hcl pH 8.4 20 mM final and NaCl-150 mM final, at room temperature for 10 minutes. The absorbance of the resulting mix was read at 405 nm.
Results are expressed as the percentage of inhibition, which is the absorbance at 405 nm of the reaction in the presence of different concentrations of inhibitor as compared to the value obtained in the absence of inhibitor.

enteropeptidase [4] = biological target: T1, enteropeptidase; assay: Test for enteropeptidase only (data not shown); format: biochemical
[5] = biological target: Recombinant human enteropeptidase (human, UniProt P98073 41-1019, limits assumed); assay: cell-based or functional assay
pepsin = pepsin (Homo sapiens, UniProt P0DJD8); conditions: read-out: Ki (affinity for pepsin); cited from earlier work
[6] = Example 9, groups 1 to 7, two months
[7] = Example 7, groups 1 to 7, two months

Chain of Recombinant human enteropeptidase (P98073 41-1019 E134Q/P732S limits assumed): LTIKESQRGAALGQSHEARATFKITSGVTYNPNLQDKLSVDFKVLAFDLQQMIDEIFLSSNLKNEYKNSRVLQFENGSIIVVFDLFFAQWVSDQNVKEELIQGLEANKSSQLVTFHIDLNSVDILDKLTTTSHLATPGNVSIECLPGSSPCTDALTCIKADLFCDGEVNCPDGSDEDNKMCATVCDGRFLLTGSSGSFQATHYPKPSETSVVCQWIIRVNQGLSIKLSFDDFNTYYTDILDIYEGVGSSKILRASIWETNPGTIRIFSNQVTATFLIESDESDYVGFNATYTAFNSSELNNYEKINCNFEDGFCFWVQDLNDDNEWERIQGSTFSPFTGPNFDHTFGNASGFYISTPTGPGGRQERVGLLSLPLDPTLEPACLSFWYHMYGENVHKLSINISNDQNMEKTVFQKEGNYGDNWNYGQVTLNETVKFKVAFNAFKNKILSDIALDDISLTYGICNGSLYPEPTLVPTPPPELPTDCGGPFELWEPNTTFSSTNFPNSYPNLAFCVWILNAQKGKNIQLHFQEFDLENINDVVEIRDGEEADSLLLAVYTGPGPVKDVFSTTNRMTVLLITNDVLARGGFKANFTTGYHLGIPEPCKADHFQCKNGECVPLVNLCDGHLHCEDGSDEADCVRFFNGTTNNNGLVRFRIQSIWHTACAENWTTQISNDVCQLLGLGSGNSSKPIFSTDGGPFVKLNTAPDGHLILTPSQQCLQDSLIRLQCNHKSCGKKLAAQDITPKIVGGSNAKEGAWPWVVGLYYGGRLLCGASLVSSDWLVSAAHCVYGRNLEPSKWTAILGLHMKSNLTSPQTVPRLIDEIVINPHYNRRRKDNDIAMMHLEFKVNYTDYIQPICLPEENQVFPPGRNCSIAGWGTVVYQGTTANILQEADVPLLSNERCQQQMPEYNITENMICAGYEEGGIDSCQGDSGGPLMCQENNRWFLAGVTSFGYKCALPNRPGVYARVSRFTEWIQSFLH
T1 sequence (P98073 whole entry): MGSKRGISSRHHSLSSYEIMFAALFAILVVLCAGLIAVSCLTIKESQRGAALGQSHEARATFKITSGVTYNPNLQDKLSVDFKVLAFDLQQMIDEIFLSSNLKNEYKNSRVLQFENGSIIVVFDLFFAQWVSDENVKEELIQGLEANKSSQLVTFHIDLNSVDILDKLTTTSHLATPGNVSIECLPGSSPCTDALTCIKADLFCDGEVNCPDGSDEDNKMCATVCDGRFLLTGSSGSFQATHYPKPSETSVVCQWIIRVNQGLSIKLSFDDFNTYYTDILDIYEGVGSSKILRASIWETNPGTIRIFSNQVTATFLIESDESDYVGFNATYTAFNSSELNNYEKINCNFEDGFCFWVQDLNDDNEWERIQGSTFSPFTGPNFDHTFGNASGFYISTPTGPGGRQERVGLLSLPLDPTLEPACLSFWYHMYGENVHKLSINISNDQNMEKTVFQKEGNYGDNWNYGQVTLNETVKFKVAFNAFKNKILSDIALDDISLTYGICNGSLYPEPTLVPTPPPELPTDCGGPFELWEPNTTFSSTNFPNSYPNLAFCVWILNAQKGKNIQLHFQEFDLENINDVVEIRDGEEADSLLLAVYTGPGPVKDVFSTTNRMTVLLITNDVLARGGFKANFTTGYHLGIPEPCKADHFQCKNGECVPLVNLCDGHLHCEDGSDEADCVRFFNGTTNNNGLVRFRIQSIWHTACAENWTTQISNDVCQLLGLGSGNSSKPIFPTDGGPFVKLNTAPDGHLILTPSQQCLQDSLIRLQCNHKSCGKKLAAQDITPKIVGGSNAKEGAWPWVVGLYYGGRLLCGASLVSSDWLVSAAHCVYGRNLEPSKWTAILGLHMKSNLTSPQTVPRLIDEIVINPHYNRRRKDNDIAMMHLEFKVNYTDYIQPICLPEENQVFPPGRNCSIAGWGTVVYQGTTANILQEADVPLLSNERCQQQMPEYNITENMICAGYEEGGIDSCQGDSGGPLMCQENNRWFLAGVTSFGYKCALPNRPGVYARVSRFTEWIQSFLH
Chain of pepsin (P0DJD8 63-388): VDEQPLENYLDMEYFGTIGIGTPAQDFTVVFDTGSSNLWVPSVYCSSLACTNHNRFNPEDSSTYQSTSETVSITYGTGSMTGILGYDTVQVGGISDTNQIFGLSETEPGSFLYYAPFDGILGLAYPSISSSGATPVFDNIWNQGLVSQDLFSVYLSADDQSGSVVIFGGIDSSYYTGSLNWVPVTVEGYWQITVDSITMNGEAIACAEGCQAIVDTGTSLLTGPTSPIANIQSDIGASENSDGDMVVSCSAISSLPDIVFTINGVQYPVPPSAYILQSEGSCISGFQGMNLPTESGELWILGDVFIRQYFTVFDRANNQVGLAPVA

Molecule	levels of HDL [1, 6]	levels of LDL [1, 6]	levels of cholesterol [1, 6]	levels of triglycerides [1, 6]	levels of blood glucose [2, 7]	other results
CC(C)CN(C[C@@H](O)[C@H](Cc1ccccc1)NC(=O)O[C@H]1CCOC1)S(=O)(=O)c1ccc(N)cc1 [amprenavir]	higher	significantly reduced	significantly reduced	significantly reduced	significantly reduced	
Z-Asp-Glu-Val-Asp-chloromethylketone						inhibition (enteropeptidase [3]; tested at 50 μm): no inhibition; IC50 when tested for enteropeptidase only, compared with the ones reported in FIG. 6 (enteropeptidase [4]): higher
CC(C)CN(C[C@@H](OP(=O)(O)O)[C@H](Cc1ccccc1)NC(=O)O[C@H]1CCOC1)S(=O)(=O)c1ccc(N)cc1 [fosamprenavir]	higher	significantly reduced	significantly reduced	significantly reduced	significantly reduced	
CC(C)(C)NC(=O)[C@@H]1C[C@@H]2CCCC[C@@H]2CN1C[C@@H](O)[C@H](Cc1ccccc1)NC(=O)[C@H](CC(N)=O)NC(=O)c1ccc2ccccc2n1 [saquinavir]	higher	significantly reduced	significantly reduced	significantly reduced	significantly reduced	
CC(=O)N[C@@H](CC(C)C)C(=O)N[C@H](C(=O)N[C@H](C=O)CCCCN)C(C)C [AC-Leu-Val-Lys-Aldhehyde] (Ac-Leu-Val-Lys-aldehyde)						IC50 (enteropeptidase [3]; trypsinogen activation assay, FIG. 6, enteropeptidase 1.5 nM, trypsinogen 2.5 μM): ~3000 nM
COC(=O)N[C@H](C(=O)N[C@@H](Cc1ccccc1)[C@@H](O)CN(Cc1ccc(-c2ccccn2)cc1)NC(=O)[C@@H](NC(=O)OC)C(C)(C)C)C(C)(C)C [atazanavir]	higher	significantly reduced	significantly reduced	significantly reduced	significantly reduced	
Cc1cccc(C)c1OCC(=O)N[C@@H](Cc1ccccc1)[C@@H](O)C[C@H](Cc1ccccc1)NC(=O)[C@H](C(C)C)N1CCCNC1=O [lopinavir]	higher	significantly reduced	significantly reduced	significantly reduced	significantly reduced	
CC(C)c1nc(CN(C)C(=O)N[C@H](C(=O)N[C@@H](Cc2ccccc2)C[C@H](O)[C@H](Cc2ccccc2)NC(=O)OCc2cncs2)C(C)C)cs1 [ritonavir]						levels of HDL ([1]; 600 mg twice a day, 2 months): higher; levels of LDL ([1]; 600 mg twice a day, 2 months): significantly reduced; levels of total cholesterol ([1]; 600 mg twice a day, 2 months): significantly reduced; levels of triglycerides ([1]; 600 mg twice a day, 2 months): significantly reduced; levels of blood glucose ([2]; 600 mg twice a day, 2 months): significantly reduced
BOC-Ala-Glu-Val-Asp-Aldehyde (Boc-AEVD-aldehyde; SMILES CC(C)[C@H](NC(=O)[C@H](CCC(=O)O)NC(=O)[C@H](C)NC(=O)OC(C)(C)C)C(=O)N[C@H](C=O)CC(=O)O) [negative control, Bachem N-1755]						inhibition (enteropeptidase [3]; tested at 10 μm): no inhibition
CC(C)(C)NC(=O)[C@@H]1CN(Cc2cccnc2)CCN1C[C@@H](O)C[C@@H](Cc1ccccc1)C(=O)N[C@H]1c2ccccc2C[C@H]1O [indinavir]	higher	significantly reduced	significantly reduced	significantly reduced	significantly reduced	
AC-Leu-Val-Lys-Aldhehyde (peptide)						IC50 in the trypsinogen activation assay (percentage of inhibition, absorbance of pNA at 405 nM) [5]: 3 µM
CC(C)[C@H](NC(=O)[C@H](Cc1ccccc1)C[C@H](O)[C@H](Cc1ccccc1)NC(=O)OC(C)(C)C)C(=O)N[C@@H](Cc1ccccc1)C(=O)N1CCOCC1 [CGP 53437]						Ki (pepsin): 8 nM
N=C(N)NCCC[C@H](NC(=O)[C@@H]1CCCN1C(=O)[C@H](N)Cc1ccc(O)cc1)C(=O)CCl [H-D-Tyr-Pro-Arg-chloromethylketone trifluororoacetate salt] (H-[dY]-Pro-Arg-CH2Cl)						IC50 when tested for enteropeptidase only, compared with the ones reported in FIG. 6 (enteropeptidase [4]): higher
Cc1c(O)cccc1C(=O)N[C@@H](CSc1ccccc1)[C@H](O)CN1C[C@H]2CCCC[C@H]2C[C@H]1C(=O)NC(C)(C)C [nelfinavir]	higher	significantly reduced	significantly reduced	significantly reduced	significantly reduced	
B1						IC50 in the trypsinogen activation assay (percentage of inhibition, absorbance of pNA at 405 nM) [5]: ~35 nM
B2						IC50 in the trypsinogen activation assay (percentage of inhibition, absorbance of pNA at 405 nM) [5]: ~24.7 nM
